Data reported in patent US20120015056A1, “COMPOSITION COMPRISING EXTRACTS OR FRACTIONS OF SPECIFIC PLANTS, USE THEREOF AND PROCESS FOR PREPARING THE EXTRACTS” (priority 2010, published 2012).

Key:
Assay type in all cases: cell-based
HepG2 (liver cancer) = assay: MTT assay, viability of HepG2 at 500 nm; design: value of the treated group, Mean value: unit not given here
Protocol: (§1) Similarly, MTT assay was performed for lung cancer cell line A549 and liver cancer cell line HepG2. But, MTT solutions were added instead of XTT solutions; as a culture medium, RPMI1640 with L-glutamine (300 mg/L), 25 mM HEPES and 25 mM NaHCO3 90% and heat-inactivated fetal bovine serum (FBS) 10% was used for A549, and minimum essential medium, 25 mM HEPES and 25 mM NaHCO3 90% and heat-inactivated fetal bovine serum (FBS) 10% was used for HepG2; and MTT values were measured at 1 d, 2 d, 3 d and 4 d, respectively.
(§2) In the following, the values for the composition of the invention indicate the mean value of values obtained using the extracts of the Examples 1 to 3.
The following Table 7 and FIG. 12 show the value of the treated group determined in cell line HepG2.

A549 (lung cancer) = assay: MTT assay, viability of A549 at 500 nm; design: value of the treated group, Mean value: unit not given here
Protocol: as §1, §2
The following Table 6 and FIG. 11 show the value of the treated group determined in cell line A549.

[1] = tested on: MDA-MB-231 (breast cancer); assay: XTT assay, viability of MDA-MB-231 at 450 nm; design: key to value of [the treated group−the blank group], Mean value: absorbance at 450 nm, treated minus blank
Protocol: (§3) Each of 5×10^3 breast cancer cells MDA-MB-231 and TTU-1 were seeded in a 96-well flat-bottomed microplate, and cultured in CO2 incubator. Cells were seeded in a 96-well tissue culture plate at a density of 10,000 cells for normal cells and 5,000 cells for cancer cells. DMEM plus 10% fetal bovine serum was used as a culture medium. At 24 hours after seeding, the extracts obtained in the Examples 1 to 3 were added to each well. At 12 hours after added the extracts, XTT solutions were added and then the cells were incubated for 2 hours. After that, absorbance value were measured using microplate spectrophotometer at a wavelength of 450 nm. In addition, Annexin-V/PI-stained MDA-MB-231 and TTU-1 cells were photographed and observed.
as §2
The following Table 4 and FIG. 9 show the value of [the treated group−the blank group] determined in cell line MDA-MB-231.

TTU-1 (breast cancer) = assay: XTT assay, viability of TTU-1 at 450 nm
Protocol: as §3, with “[…] […]” for “At 24 hours after seeding, the extracts obtained in the Examples 1 to 3 were added to each well. At 12 hours after added the extracts, XTT solutions were added and then the cells were incubated for 2 hours.”

CC(=O)O[C@H]1C(=O)[C@@]2(C)[C@H]([C@H](OC(=O)c3ccccc3)[C@]3(O)C[C@H](OC(=O)[C@H](O)[C@@H](NC(=O)c4ccccc4)c4ccccc4)C(C)=C1C3(C)C)[C@]1(OC(C)=O)CO[C@@H]1C[C@@H]2O [Taxol]
course of the value as time goes by (FIG. 12) (HepG2 (liver cancer)): increasing | value of the treated group, Mean value (HepG2 (liver cancer); 35.1 uM/ml, 24 h): 2.73 | value of the treated group, Mean value (HepG2 (liver cancer); 35.1 uM/ml, 48 h): 2.604 | value of the treated group, Mean value (HepG2 (liver cancer); 35.1 uM/ml, 72 h): 2.506 | value of the treated group, Mean value (HepG2 (liver cancer); 35.1 uM/ml, 96 h): 2.546 | value of the treated group, Mean value (HepG2 (liver cancer); 70.2 uM/ml, 24 h): 2.71 | value of the treated group, Mean value (HepG2 (liver cancer); 70.2 uM/ml, 48 h): 2.595 | value of the treated group, Mean value (HepG2 (liver cancer); 70.2 uM/ml, 72 h): 2.466 | value of the treated group, Mean value (HepG2 (liver cancer); 70.2 uM/ml, 96 h): 2.389 | course of the value as time goes by (FIG. 11) (A549 (lung cancer)): increasing | value of the treated group, Mean value (A549 (lung cancer); 35.1 uM/ml, 24 h): 2.438 | value of the treated group, Mean value (A549 (lung cancer); 35.1 uM/ml, 48 h): 2.753 | value of the treated group, Mean value (A549 (lung cancer); 35.1 uM/ml, 72 h): 2.6 | value of the treated group, Mean value (A549 (lung cancer); 35.1 uM/ml, 96 h): 2.934 | value of the treated group, Mean value (A549 (lung cancer); 70.2 uM/ml, 24 h): 2.488 | value of the treated group, Mean value (A549 (lung cancer); 70.2 uM/ml, 48 h): 2.911 | value of the treated group, Mean value (A549 (lung cancer); 70.2 uM/ml, 72 h): 2.691 | value of the treated group, Mean value (A549 (lung cancer); 70.2 uM/ml, 96 h): 2.98 | course of the value as time goes by (FIG. 9) [1]: increasing | value of [the treated group−the blank group], Mean value ([1]; 1.2 × 10^−7M, 12 h): 0.074 | value of [the treated group−the blank group], Mean value ([1]; 1.2 × 10^−7M, 84 h): 0.107 | value of [the treated group−the blank group], Mean value ([1]; 1.2 × 10^−7M, 108 h): −0.006 | value of [the treated group−the blank group], Mean value ([1]; 1.2 × 10^−7M, 132 h): 0.034 | value of [the treated group−the blank group], Mean value ([1]; 2.5 × 10^−6M, 12 h): 0.076 | value of [the treated group−the blank group], Mean value ([1]; 2.5 × 10^−6M, 84 h): 0.085 | value of [the treated group−the blank group], Mean value ([1]; 2.5 × 10^−6M, 108 h): 0.024 | value of [the treated group−the blank group], Mean value ([1]; 2.5 × 10^−6M, 132 h): −0.007 | course of the value as time goes by (FIG. 10) (TTU-1 (breast cancer)): increasing | value of [the treated group−the blank group], Mean value (TTU-1 (breast cancer); 1.2 × 10^−7M, 12 h): 0.079 | value of [the treated group−the blank group], Mean value (TTU-1 (breast cancer); 1.2 × 10^−7M, 84 h): 0.123 | value of [the treated group−the blank group], Mean value (TTU-1 (breast cancer); 1.2 × 10^−7M, 108 h): 0.012 | value of [the treated group−the blank group], Mean value (TTU-1 (breast cancer); 1.2 × 10^−7M, 132 h): 0.084 | value of [the treated group−the blank group], Mean value (TTU-1 (breast cancer); 2.5 × 10^−6M, 12 h): 0.067 | value of [the treated group−the blank group], Mean value (TTU-1 (breast cancer); 2.5 × 10^−6M, 108 h): −0.002 | value of [the treated group−the blank group], Mean value (TTU-1 (breast cancer); 2.5 × 10^−6M, 132 h): 0.035

O=c1[nH]cc(F)c(=O)[nH]1 [Example 5-FU, 5-FU]
value of the treated group, Mean value (HepG2 (liver cancer); 1,000 ppm, 24 h): 2.867 | value of the treated group, Mean value (HepG2 (liver cancer); 1,000 ppm, 48 h): 1.998 | value of the treated group, Mean value (HepG2 (liver cancer); 1,000 ppm, 72 h): 1.853 | value of the treated group, Mean value (HepG2 (liver cancer); 1,000 ppm, 96 h): 0.938 | value of the treated group, Mean value (A549 (lung cancer); 1,000 ppm, 24 h): 2.298 | value of the treated group, Mean value (A549 (lung cancer); 1,000 ppm, 48 h): 1.697 | value of the treated group, Mean value (A549 (lung cancer); 1,000 ppm, 72 h): 0.863 | value of the treated group, Mean value (A549 (lung cancer); 1,000 ppm, 96 h): 0.42
